The source of these data is patent US10954214B2 (Janssen Pharmaceutica NV, priority 2016, dated 2021).

Experiment [1] relates to TMD8 cells. The experiment can be described thus: 4-day proliferation assay, TMD8. In kind it is cell-based. As to conditions: Homo sapiens, 96 h, 4 days incubation, CellTiterGLO, read-out: Anti-proliferation: TMD-8 IC50. The essentials:
(§1)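 Each line was plated at 10,000 cells per well for linear growth, with no beta-mercaptoethanol during the assay. OCI-Ly3 cells were below passage 10.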
For orientation: ATP-based viability assays read luminescence as a measure of living cells.

For experiment [2], the system named is OCI-Ly3 cells. The experiment is described as follows: 4-day proliferation assay, OCI-Ly3. In kind it is cell-based, human. Particulars: Homo sapiens, 96 h, 4 days incubation, CellTiterGLO, read-out: Anti-proliferation: OCI-LY-3 IC50. The essentials:
as §1

In experiment [3] the target is full-length MALT1 protein (Strep-MALT1(1-824)-His) (Homo sapiens (Human), UniProt Q9UDY8). The experiment can be described thus: MALT1 Biochemical Protease Assay (Ac-LRSR-AMC substrate). Particulars: 10 nM FL MALT1, 200 μM Ac-LRSR-AMC, 4 h at RT; read-out: MALT1_Biochemical activity (Ac-LRSR-amc) IC50. In a few lines:
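Fluorescence from AMC release off the quenched LRSR substrate was read after a 4 h reaction at RT. Values were normalised to no-enzyme and uninhibited controls and fitted for IC50 and Hill coefficient.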

Experiment [4] deals with IL10 secretion by TMD8 ABC-DLBCL cells. The experiment is described as follows: Human IL10 Mesoscale assay (TMD-8). In kind it is cell-based. Particulars: Homo sapiens, TMD8; TMD-8 cells, 24 h. The essentials:
(§2)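 Read-out: MSD electrochemiluminescence of IL6/IL10 in supernatants. Cells (100,000/well, no beta-mercaptoethanol) were exposed to compounds at 15 μM down to 58.6 nM, 1:2 dilutions, for 24 h at 37° C, 5% CO2. Normalised between DMSO (high) and RN486 (low) controls.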

Experiment [5] has as its system IL6 secretion by TMD8 ABC-DLBCL cells. The experiment is described as follows: Human IL6 Mesoscale assay (TMD-8). The experiment is classed as cell-based. Particulars: Homo sapiens, TMD8; TMD-8 cells, 24 h. The essentials:
as §2

For experiment [6], the system named is IL6 secretion by OCI-LY3 ABC-DLBCL cells. The experiment is described as follows: Human IL6 Mesoscale assay (OCI-LY3). In kind it is cell-based. As to conditions: Homo sapiens, 24 h. In a few lines: as §2
The subject of experiment [7] is IL10 secretion by OCI-LY3 ABC-DLBCL cells. The experiment can be described thus: Human IL10 Mesoscale assay (OCI-LY3). The experiment is classed as cell-based. Particulars: Homo sapiens, 24 h. The essentials:
as §2

full-length MALT1 protein (Strep-MALT1(1-824)-His), sequence (Q9UDY8 whole entry): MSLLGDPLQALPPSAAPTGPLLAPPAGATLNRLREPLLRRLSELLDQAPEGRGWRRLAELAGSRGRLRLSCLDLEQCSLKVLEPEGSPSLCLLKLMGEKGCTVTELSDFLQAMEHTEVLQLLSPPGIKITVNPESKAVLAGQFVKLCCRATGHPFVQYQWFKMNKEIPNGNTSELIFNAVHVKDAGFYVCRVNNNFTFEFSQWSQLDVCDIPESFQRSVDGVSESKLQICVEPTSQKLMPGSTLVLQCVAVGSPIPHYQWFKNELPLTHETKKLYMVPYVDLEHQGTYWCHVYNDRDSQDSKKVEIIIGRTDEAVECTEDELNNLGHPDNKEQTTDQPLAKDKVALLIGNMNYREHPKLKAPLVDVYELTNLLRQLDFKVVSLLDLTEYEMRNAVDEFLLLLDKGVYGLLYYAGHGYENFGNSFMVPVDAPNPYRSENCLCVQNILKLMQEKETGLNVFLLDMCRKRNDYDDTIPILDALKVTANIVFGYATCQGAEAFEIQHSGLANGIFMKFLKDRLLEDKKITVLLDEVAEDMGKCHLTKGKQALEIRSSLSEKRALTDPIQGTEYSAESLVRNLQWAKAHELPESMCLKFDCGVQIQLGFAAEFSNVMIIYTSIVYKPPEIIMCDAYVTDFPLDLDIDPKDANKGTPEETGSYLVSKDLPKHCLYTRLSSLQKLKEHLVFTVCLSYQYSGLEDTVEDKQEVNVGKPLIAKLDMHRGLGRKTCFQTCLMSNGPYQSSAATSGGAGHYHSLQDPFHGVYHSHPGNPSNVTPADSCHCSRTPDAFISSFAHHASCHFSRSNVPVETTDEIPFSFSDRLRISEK

Turning to `O=C(Nc1ccc(-n2nccn2)c(Cl)c1)c1cnn(-c2cccc3c(=O)[nH]ccc23)c1C(F)(F)F` [Cpd 129, N-(3-chloro-4-(2H-1,2,3-triazol-2-yl)phenyl)-1-(1-oxo-1,2-dihydroisoquinolin-5-yl)-5-(trifluoromethyl)-1H-pyrazole-4-carboxamide], the IC50 is 2460 nM in experiment [1]; 179 nM in experiment [2]; 16 nM in experiment [3]; 123 nM in experiment [4]; 120 nM in experiment [5]; 18 nM in experiment [6]. The molecule further registered an IC50 in experiment [7] of 14 nM.
Turning to `CN(C)Cc1cnn(-c2ncc(NC(=O)c3cnn(-c4cccc5ncccc45)c3C(F)(F)F)cc2Cl)n1` [Cpd 137, N-(5-chloro-6-(4-((dimethylamino)methyl)-2H-1,2,3-triazol-2-yl)pyridin-3-yl)-1-(quinolin-5-yl)-5-(trifluoromethyl)-1H-pyrazole-4-carboxamide], the IC50 in experiment [1] was determined as 2400 nM; in experiment [2], 819 nM; in experiment [3], 23 nM; in experiment [4] it was 200 nM; in experiment [5], 170 nM; in experiment [6], 26 nM. Also, the IC50 in experiment [7] worked out at 17 nM.
Turning to `O=C(Nc1cnc(-n2nccn2)c(Cl)c1)c1cnn(-c2cccc3ncsc23)c1C(F)(F)F` [Cpd 153, 1-(benzo[d]thiazol-7-yl)-N-(5-chloro-6-(2H-1,2,3-triazol-2-yl)pyridin-3-yl)-5-(trifluoromethyl)-1H-pyrazole-4-carboxamide], the IC50 was determined as 3800 nM in experiment [1]; 265 nM in experiment [2]; 12 nM in experiment [3]; 162 nM in experiment [4]; 141 nM in experiment [5]; 54 nM in experiment [6]. Besides, in experiment [7], the IC50 worked out at 81 nM.
In the case of `O=C(Nc1cnc(-n2nccn2)c(Cl)c1)c1cnn(-c2cccc3scnc23)c1C(F)(F)F` [Cpd 306, 1-(benzo[d]thiazol-4-yl)-N-(5-chloro-6-(2H-1,2,3-triazol-2-yl)pyridin-3-yl)-5-(trifluoromethyl)-1H-pyrazole-4-carboxamide], the IC50 in experiment [1] is 1510 nM; in experiment [2], 540 nM; in experiment [3] it was 58 nM; in experiment [4] it was over 3020 nM; in experiment [5] it was over 3020 nM; in experiment [6], over 3020 nM. Further, the IC50 in experiment [7] is 2630 nM.
Consider `N#Cc1cc(NC(=O)c2cnn(-c3ncnc4ccsc34)c2C(F)(F)F)cnc1-n1nccn1` [Cpd 315, N-(5-cyano-6-(2H-1,2,3-triazol-2-yl)pyridin-3-yl)-1-(thieno[3,2-d]pyrimidin-4-yl)-5-(trifluoromethyl)-1H-pyrazole-4-carboxamide], for which the IC50 in experiment [1] was found to be 6760 nM; in experiment [2], 1080 nM; in experiment [3], 33 nM; in experiment [4], 339 nM; in experiment [5] it was 447 nM; in experiment [6] it was 95 nM. The molecule further came in with an IC50 in experiment [7] of 132 nM.
